Target: PICK1 (protein interacting with kinase C1), PDZ domain (Homo sapiens, UniProt Q9NRD5)
Assay: biochemical

Chain of PICK1 (protein interacting with kinase C1), PDZ domain (Q9NRD5 1-357 limits assumed): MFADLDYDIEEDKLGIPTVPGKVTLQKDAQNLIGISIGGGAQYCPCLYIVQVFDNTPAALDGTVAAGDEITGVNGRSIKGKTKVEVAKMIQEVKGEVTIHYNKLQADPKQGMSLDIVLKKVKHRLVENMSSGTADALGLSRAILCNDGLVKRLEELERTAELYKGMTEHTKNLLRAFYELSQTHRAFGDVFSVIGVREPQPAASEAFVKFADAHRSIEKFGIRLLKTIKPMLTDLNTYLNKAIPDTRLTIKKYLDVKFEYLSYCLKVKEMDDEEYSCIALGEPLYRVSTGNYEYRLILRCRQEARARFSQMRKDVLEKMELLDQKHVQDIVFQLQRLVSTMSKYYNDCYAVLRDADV

IC50: 513 nM
SMILES: CC(C)(C)OC(=O)N1CCC[C@H]1C(=O)N1CCC(C(=O)N[C@H](C(=O)O)C2CCCC2)(c2ccc(Br)cc2)CC1 [BIO124]

Reference: PMC5818740, “Lock and chop: A novel method for the generation of a PICK1 PDZ domain and piperidine‐based inhibitor co‐crystal structure” (Protein Science : A Publication of the Protein Society, 2018)
